In patent US20220289691A1, “5-AMINO-SUBSTITUTED PYRAZOLES AND TRIAZOLES AS PEST CONTROL AGENTS” (Bayer Aktiengesellschaft, priority 2019, published 2022):

Assays:
[1] = test system: Diabrotica balteata; assay: Diabrotica balteata spray test; type: in vivo; settings: 168 h, beetle larvae on wheat, after 7 days, read-out: efficacy (wheat plant growth); for pest or weed control at 100 g/ha: 100 g/ha (=32 μg/cavity); for pest or weed control at 500 g/ha: 500 g/ha (=160 μg/cavity); for pest or weed control at 125 g/ha: 125 g/ha (=40 μg/cavity)
Protocol: Diabrotica balteata—Spray Test Solvent: 78 parts by weight of acetone • • 1.5 parts by weight of dimethylformamide Emulsifier: alkylaryl polyglycol ether
(§1) To produce a suitable active compound formulation, 1 part by weight of active compound is dissolved using the stated parts by weight of solvent and made up with water containing an emulsifier concentration of 1000 ppm until the desired concentration is attained. To produce further test concentrations, the formulation is diluted with emulsifier-containing water.
Pre-swollen wheat grains (Triticum aestivum) are incubated in a multiwell plate filled with agar and a little water for one day (5 seed grains per cavity). The germinated wheat grains are sprayed with an active compound formulation of the desired concentration. Subsequently, each cavity is infected with 10-20 beetle larvae of Diabrotica balteata.
After 7 days, the efficacy in % is determined. 100% means that all wheat plants have grown as in the untreated, uninfected control; 0% means that no wheat plant has grown.

[2] = test system: Spodoptera frugiperda; assay: Spodoptera frugiperda spray test; type: in vivo; settings: foliar, 168 h, maize leaf discs, after 7 days, read-out: efficacy (caterpillars killed)
Protocol: Spodoptera frugiperda—Spray Test Solvent: 78.0 parts by weight of acetone • • 1.5 parts by weight of dimethylformamide Emulsifier: alkylaryl polyglycol ether
as §1
Leaf discs of maize (Zea mays) are sprayed with an active compound formulation of the desired concentration and, after drying, populated with caterpillars of the fall armyworm (Spodoptera frugiperda).
After 7 days, the efficacy in % is determined. 100% means that all the caterpillars have been killed; 0% means that no caterpillar has been killed.

Row | Structure (SMILES) | pest or weed control at 100 g/ha [2] [%] | further results
1 | CC(C)c1ccccc1NC(=S)NN=Cc1ccc(-c2nc(/N=C/N(C)C)n(-c3ccc(OC(F)(F)F)cc3)n2)cc1 [Compound I-061] | 100 | pest or weed control at 100 g/ha [1]: 80%; pest or weed control at 500 g/ha [1]: 80%
2 | CC(C)c1ccccc1NC(=S)NN=Cc1ccc(-c2nc(NCCO)n(-c3ccc(OC(F)(F)F)cc3)n2)cc1 [Compound I-078] | 100 | –
3 | CC(C)c1ccccc1N1C(=O)CSC1=NC(=O)Nc1ccc(-c2nc(N)n(-c3ccc(OC(F)(F)C(F)(F)F)cc3)n2)cc1 [Compound I-055] | 100 | pest or weed control at 100 g/ha [1]: 80%; pest or weed control at 500 g/ha [1]: 100%
4 | CC(=O)NCCNc1nc(-c2ccc(NC(=O)N=C3SCC(=O)N3c3ccccc3C(C)C)cc2)nn1-c1ccc(OC(F)(F)F)cc1 [Compound I-033] | 100 | pest or weed control at 125 g/ha [1]: 100%; pest or weed control at 500 g/ha [1]: 100%
5 | CC(C)c1ccccc1NC(=S)NN=Cc1ccc(-c2nc(N)n(-c3ccc(OC(F)(F)C(F)(F)F)cc3)n2)cc1 [Compound I-066] | 100 | pest or weed control at 100 g/ha [1]: 100%; pest or weed control at 500 g/ha [1]: 100%
6 | CNc1nc(-c2ccc(C=NNC(=S)Nc3ccccc3C(C)C)cc2C)nn1-c1ccc(OC(F)(F)F)cc1 [Compound I-119] | 100 | pest or weed control at 100 g/ha [1]: 100%
7 | CC(C)c1ccccc1N1C(=O)CSC1=NC(=O)Nc1ccc(-c2nc(NC3CCOC3)n(-c3ccc(OC(F)(F)F)cc3)n2)cc1 (stereo not shown) [Compound I-045] | 100 | pest or weed control at 100 g/ha [1]: 100%; pest or weed control at 500 g/ha [1]: 100%; pest or weed control at 500 g/ha ([2]; 500 g/ha): 100%
8 | C=CCNc1nc(-c2ccc(C=NNC(=S)Nc3ccccc3C(C)C)cc2)nn1-c1ccc(OC(F)(F)F)cc1 [Compound I-071] | 100 | pest or weed control at 100 g/ha [1]: 100%
9 | CCOC(=O)C(=O)Nc1nc(-c2ccc(NC(=O)N=C3SCC(=O)N3c3ccccc3C(C)C)cc2)nn1-c1ccc(OC(F)(F)F)cc1 [Compound I-037] | 83 | pest or weed control at 100 g/ha [1]: 80%; pest or weed control at 500 g/ha [1]: 100%
10 | CC(C)c1ccccc1NC(=S)NN=Cc1ccc(-c2nc(NS(=O)(=O)C(F)F)n(-c3ccc(OC(F)(F)F)cc3)n2)cc1 [Compound I-028] | 83 | –
11 | CNc1nc(-c2ccc(C=NN=C3SCC(=O)N3c3ccccc3C(C)C)nc2)nn1-c1ccc(OC(F)(F)F)cc1 [Compound I-118] | 100 | pest or weed control at 100 g/ha [1]: 100%
12 | CC(C)c1ccccc1NC(=S)NN=Cc1ccc(-c2nc(NCCO)n(-c3ccc(OC(F)(F)C(F)(F)F)cc3)n2)cc1 [Compound I-135] | 100 | –
13 | CNc1nc(-c2ccc(C=NN=C3SCC(=O)CN3c3ccccc3C(C)C)cc2)nn1-c1ccc(OC(F)(F)F)cc1 [Compound I-103] | 100 | pest or weed control at 100 g/ha [1]: 100%
14 | CNc1nc(-c2ccc(/C=N/NC(=S)Nc3ccccc3C(C)C)c(Cl)c2)nn1-c1ccc(OC(F)(F)F)cc1 [Compound I-114] | 100 | pest or weed control at 100 g/ha [1]: 100%
15 | CC(C)c1ccccc1NC(=S)NN=Cc1ccc(-c2nc(N3CCOCC3)n(-c3ccc(OC(F)(F)F)cc3)n2)cc1 [Compound I-019] | 100 | pest or weed control at 125 g/ha [1]: 100%; pest or weed control at 500 g/ha [1]: 100%
16 | CC(C)c1ccccc1N1C(=O)CSC1=NN=Cc1ccc(-c2nc(NCCC#N)n(-c3ccc(OC(F)(F)F)cc3)n2)cc1 [Compound I-092] | 100 | –
17 | CC(C)Nc1nc(-c2ccc(NC(=O)N=C3SCC(=O)N3c3ccccc3C(C)C)cc2)nn1-c1ccc(OC(F)(F)F)cc1 [Compound I-043] | 100 | pest or weed control at 100 g/ha [1]: 100%; pest or weed control at 500 g/ha [1]: 100%
18 | COCCNc1nc(-c2ccc(NC(=O)N=C3SCC(=O)N3c3ccccc3C(C)C)cc2)nn1-c1ccc(OC(F)(F)C(F)(F)F)cc1 [Compound I-128] | 100 | –
19 | CC(C)c1ccccc1N1C(=O)CSC1=NN=Cc1ccc(-c2nc(NC3COC3)n(-c3ccc(OC(F)(F)F)cc3)n2)cc1 [Compound I-053] | 100 | –
20 | COc1ccc(C(C)C)c(N2C(=O)CSC2=NC(=O)Nc2ccc(-c3nc(NCCC#N)n(-c4ccc(OC(F)(F)C(F)(F)F)cc4)n3)cc2)c1 [Compound I-140] | 100 | –
21 | COCCNc1nc(-c2ccc(C=NNC(=S)Nc3cc(OC)ccc3C(C)C)cc2)nn1-c1ccc(OC(F)(F)C(F)(F)F)cc1 [Compound I-133] | 100 | –
22 | CC(C)c1ccccc1N1C(=O)CSC1=NN=Cc1ccc(-c2nc(NCCC#N)n(-c3ccc(OC(F)(F)C(F)(F)F)cc3)n2)cc1 [Compound I-141] | 100 | –
23 | CCOC(CNc1nc(-c2ccc(C=NNC(=S)Nc3ccccc3C(C)C)cc2)nn1-c1ccc(OC(F)(F)F)cc1)OCC [Compound I-074] | 100 | –

Row | Structure (SMILES) | pest or weed control at 100 g/ha [2] [%] | further results
24 | CNc1nc(-c2ccc(C=NN=C3SCC(=O)N3c3ccccc3C(C)C)c(Cl)c2)nn1-c1ccc(OC(F)(F)F)cc1 [Compound I-115] | 100 | –
25 | CC(C)c1ccccc1N1C(=O)CSC1=NN=Cc1ccc(-c2nc(NC3CSC3)n(-c3ccc(OC(F)(F)C(F)(F)F)cc3)n2)cc1 [Compound I-101] | 83 | –
26 | CCOCCNc1nc(-c2ccc(C=NN=C3SCC(=O)N3c3ccccc3C(C)C)cc2)nn1-c1ccc(OC(F)(F)F)cc1 [Compound I-059] | 100 | –
27 | CC(C)c1ccccc1N1C(=O)CSC1=NN=Cc1ccc(-c2nc(NCCO)n(-c3ccc(OC(F)(F)F)cc3)n2)cc1 [Compound I-089] | 100 | –
28 | CNc1nc(-c2ccc(C=NN=C3SCC(=O)N3c3ccccc3C(C)C)cc2C)nn1-c1ccc(OC(F)(F)F)cc1 [Compound I-121] | 100 | –
29 | COc1ccc(C(C)C)c(N2C(=O)CSC2=NN=Cc2ccc(-c3nc(NCCC#N)n(-c4ccc(OC(F)(F)C(F)(F)F)cc4)n3)cc2)c1 [Compound I-142] | 100 | –
30 | CC(C)c1ccccc1N1C(=O)CSC1=NN=Cc1ccc(-c2nc(NC3CCOC3)n(-c3ccc(OC(F)(F)F)cc3)n2)cc1 (stereo not shown) [Compound I-069] | 100 | –
31 | CC(C)c1ccccc1N1C(=O)CSC1=NN=Cc1ccc(-c2nc(NCCO)n(-c3ccc(OC(F)(F)C(F)(F)F)cc3)n2)cc1 [Compound I-138] | 100 | –
32 | COCCNc1nc(-c2ccc(C=NNC(=S)Nc3ccccc3C(C)C)cc2)nn1-c1ccc(OC(F)(F)C(F)(F)F)cc1 [Compound I-132] | 100 | –
33 | CC(C)c1ccccc1NC(=S)NN=Cc1ccc(-c2nc(NCCC#N)n(-c3ccc(OC(F)(F)C(F)(F)F)cc3)n2)cc1 [Compound I-136] | 100 | –
34 | COCCCNc1nc(-c2ccc(NC(=O)N=C3SCC(=O)N3c3ccccc3C(C)C)cc2)nn1-c1ccc(OC(F)(F)F)cc1 [Compound I-081] | 100 | –
35 | CC(=O)Nc1nc(-c2ccc(C=NNC(=S)Nc3c(C)cccc3C)cc2)nn1-c1ccc(OC(F)(F)F)cc1 [Compound I-011] | 100 | –
36 | CNc1nc(-c2ccc(NC(=O)N=C3SCC(=O)N3c3ccccc3C(C)C)cc2)nn1-c1ccc(OC(F)(F)F)cc1 [Compound I-026] | – | pest or weed control at 500 g/ha [1]: 80%
37 | COCCNc1nc(-c2ccc(C=NN=C3SCC(=O)N3c3ccccc3C(C)C)cc2)nn1-c1ccc(OC(F)(F)F)cc1 [Compound I-076] | 100 | –
38 | COCCNc1nc(-c2ccc(C=NN=C3SCC(=O)N3c3cc(OC)ccc3C(C)C)cc2)nn1-c1ccc(OC(F)(F)C(F)(F)F)cc1 [Compound I-130] | 100 | –
39 | COCCNc1nc(-c2ccc(C=NN=C3SCC(=O)N3c3ccccc3C(C)C)cc2)nn1-c1ccc(OC(F)(F)C(F)(F)F)cc1 [Compound I-129] | 100 | –
40 | COCCCNc1nc(-c2ccc(C=NN=C3SCC(=O)N3c3ccccc3C(C)C)cc2)nn1-c1ccc(OC(F)(F)F)cc1 [Compound I-077] | 100 | –
41 | CC(C)c1ccccc1N1C(=O)CSC1=NC(=O)Nc1ccc(-c2nc(-n3ccnc3)n(-c3ccc(OC(F)(F)F)cc3)n2)cc1 [Compound I-031] | 100 | –
42 | COCCNc1nc(-c2ccc(NC(=O)N=C3SCC(=O)N3c3cc(OC)ccc3C(C)C)cc2)nn1-c1ccc(OC(F)(F)C(F)(F)F)cc1 [Compound I-131] | 100 | –
43 | COc1ccc(C(C)C)c(NC(=S)NN=Cc2ccc(-c3nc(NCCC#N)n(-c4ccc(OC(F)(F)C(F)(F)F)cc4)n3)cc2)c1 [Compound I-137] | 100 | –
44 | COc1ccc(C(C)C)c(NC(=S)NN=Cc2ccc(-c3nc(NCCO)n(-c4ccc(OC(F)(F)C(F)(F)F)cc4)n3)cc2)c1 [Compound I-134] | 100 | –
45 | COc1ccc(C(C)C)c(N2C(=O)CSC2=NN=Cc2ccc(-c3nc(NCCO)n(-c4ccc(OC(F)(F)C(F)(F)F)cc4)n3)cc2)c1 [Compound I-139] | 100 | –
